Experimental data: ChEMBL document CHEMBL3769336, “Discovery of a Chemical Tool Inhibitor Targeting the Bromodomains of TRIM24 and BRPF” (J Med Chem, 2016)
pIC50: −log10 of the molar value. The source made the active and inactive calls. The calls are words filed in the database; no cut-off is given here.

Columns and labels:
[1] = target: T1, Bromodomain and PHD finger-containing protein 3 (Homo sapiens, UniProt Q9ULD4); experiment: Inhibition of BRPF3 (unknown origin) by Alpha Screen assay
T1 sequence (Q9ULD4 whole entry): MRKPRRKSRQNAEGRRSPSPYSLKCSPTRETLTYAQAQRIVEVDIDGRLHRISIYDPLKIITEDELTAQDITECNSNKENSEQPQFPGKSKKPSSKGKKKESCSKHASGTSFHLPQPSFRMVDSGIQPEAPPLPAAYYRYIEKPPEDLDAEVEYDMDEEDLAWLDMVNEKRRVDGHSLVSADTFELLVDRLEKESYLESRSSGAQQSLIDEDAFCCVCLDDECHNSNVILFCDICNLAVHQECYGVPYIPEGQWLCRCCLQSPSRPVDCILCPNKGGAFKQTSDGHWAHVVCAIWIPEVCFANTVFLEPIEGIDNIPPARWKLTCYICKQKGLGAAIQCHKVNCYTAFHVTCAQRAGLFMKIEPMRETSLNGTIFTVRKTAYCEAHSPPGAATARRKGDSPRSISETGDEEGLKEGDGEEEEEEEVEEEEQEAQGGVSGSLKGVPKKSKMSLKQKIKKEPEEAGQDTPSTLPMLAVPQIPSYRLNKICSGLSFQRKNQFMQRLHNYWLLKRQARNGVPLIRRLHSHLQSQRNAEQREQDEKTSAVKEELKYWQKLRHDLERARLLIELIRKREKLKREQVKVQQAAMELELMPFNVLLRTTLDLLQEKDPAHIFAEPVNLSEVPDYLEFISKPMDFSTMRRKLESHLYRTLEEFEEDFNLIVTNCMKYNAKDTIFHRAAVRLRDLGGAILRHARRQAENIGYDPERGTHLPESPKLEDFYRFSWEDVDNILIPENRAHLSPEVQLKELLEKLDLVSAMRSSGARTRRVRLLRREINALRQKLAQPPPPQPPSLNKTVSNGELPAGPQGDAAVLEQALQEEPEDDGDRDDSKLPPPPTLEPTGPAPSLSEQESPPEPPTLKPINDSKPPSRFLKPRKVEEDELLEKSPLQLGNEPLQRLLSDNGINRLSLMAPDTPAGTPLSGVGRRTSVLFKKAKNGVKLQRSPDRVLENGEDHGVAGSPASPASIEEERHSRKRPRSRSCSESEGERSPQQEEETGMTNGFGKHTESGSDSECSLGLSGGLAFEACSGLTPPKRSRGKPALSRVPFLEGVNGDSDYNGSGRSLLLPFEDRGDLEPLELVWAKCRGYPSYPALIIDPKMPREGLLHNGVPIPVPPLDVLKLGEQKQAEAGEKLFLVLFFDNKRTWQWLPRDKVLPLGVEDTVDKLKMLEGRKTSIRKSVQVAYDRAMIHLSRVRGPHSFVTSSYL

JJN-3 = experiment: Cytotoxicity against human JJN-3 cells at 5x10'-5 M to 8x10'-8 M after 72 hrs by CellTiter-Glo assay; type: functional, cell-based
RCH-ACV = experiment: Cytotoxicity against human RCH-ACV cells at 5x10'-5 M to 8x10'-8 M after 72 hrs by CellTiter-Glo assay; type: functional, cell-based
[2] = target: T2, Bromodomain-containing protein 1 (Homo sapiens, UniProt O95696); experiment: Inhibition of BRPF2 BRD1 (unknown origin) by Alpha Screen assay
T2 sequence (O95696 whole entry): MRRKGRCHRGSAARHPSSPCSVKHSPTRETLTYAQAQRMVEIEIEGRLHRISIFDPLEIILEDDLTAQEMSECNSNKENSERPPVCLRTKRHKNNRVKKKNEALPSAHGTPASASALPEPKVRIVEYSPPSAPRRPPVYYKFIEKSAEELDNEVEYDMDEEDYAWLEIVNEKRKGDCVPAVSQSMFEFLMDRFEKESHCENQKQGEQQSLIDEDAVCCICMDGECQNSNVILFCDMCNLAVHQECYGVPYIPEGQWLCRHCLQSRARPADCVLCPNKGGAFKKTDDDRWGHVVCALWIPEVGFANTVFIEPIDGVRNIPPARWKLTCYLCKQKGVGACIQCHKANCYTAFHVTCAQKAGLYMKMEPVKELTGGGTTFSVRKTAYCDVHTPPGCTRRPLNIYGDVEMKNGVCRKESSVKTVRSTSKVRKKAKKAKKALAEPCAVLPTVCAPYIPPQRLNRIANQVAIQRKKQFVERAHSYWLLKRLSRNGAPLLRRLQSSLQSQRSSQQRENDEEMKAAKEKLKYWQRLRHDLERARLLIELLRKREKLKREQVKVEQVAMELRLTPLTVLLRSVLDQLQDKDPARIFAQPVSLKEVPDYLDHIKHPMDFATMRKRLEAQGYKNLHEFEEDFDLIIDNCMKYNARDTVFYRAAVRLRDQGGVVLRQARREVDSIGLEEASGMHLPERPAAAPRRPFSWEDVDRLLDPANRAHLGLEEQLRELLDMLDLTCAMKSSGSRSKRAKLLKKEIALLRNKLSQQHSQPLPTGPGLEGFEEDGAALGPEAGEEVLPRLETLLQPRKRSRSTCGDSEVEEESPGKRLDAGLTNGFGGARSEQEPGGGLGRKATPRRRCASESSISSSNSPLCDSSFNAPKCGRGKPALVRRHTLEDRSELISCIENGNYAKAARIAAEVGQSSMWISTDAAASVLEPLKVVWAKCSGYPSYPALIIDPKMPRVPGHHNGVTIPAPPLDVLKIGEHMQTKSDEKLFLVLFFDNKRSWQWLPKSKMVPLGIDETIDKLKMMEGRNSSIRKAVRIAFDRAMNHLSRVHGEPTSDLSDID

[3] = Cytotoxicity against human MM1S cells after 72 hrs by CellTiter-Glo assay; type: functional; details: MM1.S

For `COc1ccc(Oc2cc3c(cc2NS(=O)(=O)c2ccc(OC)c(OC)c2)n(C)c(=O)n3C)cc1`, the pIC50 [1] was 5.15, the Activity (JJN-3) was “inactive” and the Activity (RCH-ACV) was “inactive”. For the same compound, the pIC50 [2] was 5.76 and the GI50 [3] was over 10 µM.
